Assay results taken from ChEMBL document CHEMBL4418287, “Lysyl oxidase-like 2 inhibitors and uses thereof” (2018).
Active and inactive are the calls of the source.

What was measured:
Type in all cases: functional, organism-based
Mus musculus [1] = test: Antifibrotic activity in C57BL/6 mouse model of bleomycin-induced lung fibrosis assessed as reduction in collagen level in lung at 60 mg/kg, po pre-treated 1 hr to 1 day before bleomycin injection and measured after 14 to 28 days by hydroxyproline assay
Mus musculus [2] = test: Antifibrotic activity in C57BL/6 mouse model of bleomycin-induced lung fibrosis assessed as reduction in alpha smooth muscle actin level in lung at 60 mg/kg, po pre-treated 1 hr to 1 day before bleomycin injection and measured after 14 to 28 days by immunohistochemistry analysis
Mus musculus [3] = test: Antifibrotic activity in C57BL/6 mouse model of bleomycin-induced lung fibrosis assessed as reduction in hydroxyproline in lung homogenates at 60 mg/kg, po pre-treated 1 hr to 1 day before bleomycin injection and measured after 14 to 28 days by chloramine T and Erlich's solution based assay
Mus musculus [4] = test: Antifibrotic activity in C57BL/6 mouse model of bleomycin-induced lung fibrosis assessed as reduction in cross linked collagen level in lung at 60 mg/kg, po pre-treated 1 hr to 1 day before bleomycin injection and measured after 14 to 28 days by Masson's trichrome staining based assay
Mus musculus [5] = test: Antifibrotic activity in C57BL/6 mouse model of bleomycin-induced lung fibrosis assessed as reduction in cross linked collagen level in lung at 60 mg/kg, po pre-treated 1 hr to 1 day before bleomycin injection and measured after 14 to 28 days by Picro-Sirius staining based assay

Measured: Activity

NCc1cc(Oc2cccc(C(=O)N3CCN(c4ccccc4)CC3)c2)ncn1
active: Mus musculus [1] | Mus musculus [2] | Mus musculus [3] | Mus musculus [4] | Mus musculus [5]

NCc1cc(Oc2cccc(C(=O)NCc3ccnc(Cl)c3)c2)ncn1
active: Mus musculus [1] | Mus musculus [2] | Mus musculus [3] | Mus musculus [4] | Mus musculus [5]
